The values that follow come from ChEMBL document CHEMBL1201862, “PubChem BioAssay data set” (2004).

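All cell lines were grown in 96-well plates and treated with compound for 48 hours. GI50: concentration for 50% inhibition of growth.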 Active and inactive are the calls of the source. Rule as the data show it: active = GI50 up to about 1.1 µM and inactive = higher.

Test systems include SNB-75; OVCAR-3; HOP-62; PC-3; 786-0; SNB-19; T47D; NCI/ADR-RES; A498; OVCAR-4; RXF 393; MDA-MB-231; SK-MEL-2; RPMI-8226; TK-10; KM12; ACHN; EKVX; CCRF-CEM; MDA-MB-435.
Holding throughout (experiment): growth of human tumour cells (NCI), 48 h

Regarding `N/C(=N\c1ccc(Cl)cc1)NS(=O)(=O)c1ccc(-c2ccccn2)s1`, the GI50 in the assay on SNB-75 was 21.8 µM (inactive); in the assay with OVCAR-3 it was 22.8 µM (inactive); in the assay with HOP-62, 18.1 µM (inactive); in the assay with PC-3, 14.2 µM (inactive); with 786-0, 15.2 µM (inactive); with SNB-19, 16.3 µM (inactive). Besides, the GI50 with T47D was 12.8 µM (inactive); with NCI/ADR-RES, 18.1 µM (inactive); with A498 it was 12.5 µM (inactive); in the assay on OVCAR-4, 11.5 µM (inactive); in the assay with RXF 393, 16.8 µM (inactive); with MDA-MB-231 it was 14.2 µM (inactive). Also, the GI50 was 14.1 µM (inactive) in the assay with SK-MEL-2; 16.9 µM (inactive) in the assay on RPMI-8226; 17.3 µM (inactive) in the assay with TK-10; 29.7 µM (inactive) in the assay with KM12; 16.4 µM (inactive) in the assay with ACHN; 12.1 µM (inactive) in the assay with EKVX.
Turning to `COc1cc(CC(C)N)ccc1O` (stereo not drawn), the GI50 in the assay on SNB-75, in the assay on OVCAR-3, in the assay with HOP-62, with PC-3, in the assay with 786-0 and with SNB-19 was > 100 µM (inactive) each time. Also, the GI50 is > 100 µM (inactive) in the assay with T47D; > 100 µM (inactive) with NCI/ADR-RES; > 100 µM (inactive) in the assay on A498; > 100 µM (inactive) in the assay on OVCAR-4; > 100 µM (inactive) with RXF 393; > 31.6 µM (inactive) in the assay with CCRF-CEM. Further, the GI50 in the assay on SK-MEL-2, in the assay with RPMI-8226, in the assay on TK-10, in the assay with KM12, in the assay with ACHN and in the assay with EKVX was > 100 µM (inactive) each time.
Regarding `Cc1occc(=O)c1O` [MALTOL], the GI50 in the assay on SNB-75, in the assay with OVCAR-3, in the assay on HOP-62, with PC-3, with 786-0 and with SNB-19 was > 100 µM (inactive) in each case. Also, the GI50 with T47D was > 100 µM (inactive); with NCI/ADR-RES, > 100 µM (inactive); in the assay on OVCAR-4 it was > 100 µM (inactive); in the assay on CCRF-CEM, > 100 µM (inactive); in the assay with MDA-MB-231, 3.84 µM (inactive); with MDA-MB-435, > 100 µM (inactive). For the same compound, the GI50 in the assay with SK-MEL-2, with RPMI-8226, with TK-10, in the assay with KM12, in the assay on ACHN and in the assay on EKVX was > 100 µM (inactive) in each case.
`O=C(CNCc1ccccc1)Oc1c(Cl)c(Cl)c(Cl)c(Cl)c1Cl`: the GI50 in the assay on SNB-75 is 33.6 µM (inactive); with OVCAR-3 it was 22.5 µM (inactive); in the assay on HOP-62, 76.7 µM (inactive); in the assay with PC-3, 22.1 µM (inactive); with 786-0, 93.1 µM (inactive); in the assay on SNB-19 it was 28.6 µM (inactive). Further, the GI50 with T47D is 25.7 µM (inactive); with NCI/ADR-RES, 33.7 µM (inactive); in the assay with OVCAR-4 it was 44.1 µM (inactive); in the assay on RXF 393, 74.8 µM (inactive); with MDA-MB-231, 25.4 µM (inactive); with MDA-MB-435, 35.2 µM (inactive). The GI50 was 29.2 µM (inactive) with SK-MEL-2; 37.7 µM (inactive) with TK-10; 21.8 µM (inactive) in the assay on KM12; 23.1 µM (inactive) with ACHN; 22.4 µM (inactive) in the assay with EKVX.
As to `Cc1ccc(C(=O)OCC(C)C)cc1/N=N/N(C)C`, the GI50 with OVCAR-3 was 28.6 µM (inactive); in the assay on HOP-62 it was 67.8 µM (inactive); with PC-3 it was 48.4 µM (inactive); in the assay with 786-0, > 81.5 µM (inactive); in the assay with SNB-19, > 76.7 µM (inactive); in the assay on T47D, 35.3 µM (inactive). Further, the GI50 in the assay with NCI/ADR-RES is 97.1 µM (inactive); in the assay on OVCAR-4 it was > 71.8 µM (inactive); in the assay on CCRF-CEM it was > 100 µM (inactive); with MDA-MB-231, > 100 µM (inactive); with MDA-MB-435, 95.9 µM (inactive); in the assay on SK-MEL-2, > 100 µM (inactive). Moreover, the GI50 was 77.6 µM (inactive) in the assay with RPMI-8226; > 100 µM (inactive) with TK-10; 38.8 µM (inactive) in the assay with KM12; 54.8 µM (inactive) in the assay on ACHN; > 100 µM (inactive) with EKVX.
Consider `COc1ccc(-c2nc(-c3cnccn3)n(COCCO)n2)cc1`, for which the GI50 in the assay on OVCAR-3, in the assay with HOP-62, with PC-3, in the assay on 786-0, in the assay on SNB-19 and in the assay with T47D was > 100 µM (inactive) each time. In addition, the GI50 in the assay with NCI/ADR-RES, in the assay with OVCAR-4, in the assay with RXF 393, in the assay on CCRF-CEM, in the assay on MDA-MB-231 and with MDA-MB-435 was > 100 µM (inactive) each time. For the same compound, the GI50 with RPMI-8226, with TK-10 and in the assay on KM12 was > 100 µM (inactive) each time.
For the compound `Cc1ccc(/C(Cl)=C/C=C(C#N)C#N)cc1`, the GI50 in the assay with SNB-75 is 13.2 µM (inactive); with OVCAR-3 it was 1.93 µM (inactive); in the assay on HOP-62, 1.98 µM (inactive); with PC-3 it was 4.01 µM (inactive); in the assay on 786-0, 1.88 µM (inactive); in the assay on SNB-19, 7.62 µM (inactive). In addition, the GI50 with T47D was 4.23 µM (inactive); with NCI/ADR-RES, 2.18 µM (inactive); in the assay with OVCAR-4 it was 3.22 µM (inactive); in the assay with RXF 393 it was 2.61 µM (inactive); in the assay with CCRF-CEM, 0.441 µM (active); in the assay with MDA-MB-231 it was 2.64 µM (inactive). The GI50 in the assay with MDA-MB-435 is 2.47 µM (inactive); in the assay with SK-MEL-2 it was 6.32 µM (inactive); in the assay on RPMI-8226, 2.35 µM (inactive); in the assay on TK-10 it was 2.25 µM (inactive); in the assay on KM12 it was 5.22 µM (inactive); in the assay with ACHN it was 2.45 µM (inactive). The GI50 in the assay on EKVX is 10.1 µM (inactive).
As for `CC(=O)/C(=C\NC(=S)Nc1ccc(S(N)(=O)=O)cc1)C(=O)Nc1ccccc1C`, the GI50 with OVCAR-3 is 64.7 µM (inactive); with HOP-62 it was 95.3 µM (inactive); in the assay on PC-3, 38.2 µM (inactive); in the assay on 786-0 it was 41.9 µM (inactive); in the assay with SNB-19, 84.3 µM (inactive); with T47D, 28.7 µM (inactive). Besides, the GI50 in the assay on NCI/ADR-RES was > 100 µM (inactive); with OVCAR-4, 36.9 µM (inactive); in the assay with RXF 393, 37.1 µM (inactive); in the assay on CCRF-CEM it was 16 µM (inactive); in the assay with MDA-MB-231 it was 34.2 µM (inactive); in the assay with MDA-MB-435 it was 32.3 µM (inactive). Also, the GI50 was 51.9 µM (inactive) in the assay with SK-MEL-2; 30.3 µM (inactive) with RPMI-8226; 88.7 µM (inactive) with TK-10; 43.3 µM (inactive) in the assay on KM12; 52.5 µM (inactive) in the assay on ACHN; 66.5 µM (inactive) in the assay with EKVX.
For `CC1(C)O[C@H]2Cn3c(c(C#N)c4ccccc43)[C@H]2O1`, the GI50 in the assay on SNB-75 is 39.8 µM (inactive); in the assay on OVCAR-3 it was > 100 µM (inactive); in the assay with HOP-62 it was > 100 µM (inactive); with 786-0 it was > 100 µM (inactive); in the assay on SNB-19, > 100 µM (inactive); in the assay on T47D, > 100 µM (inactive). Besides, the GI50 in the assay with NCI/ADR-RES, in the assay with OVCAR-4, with MDA-MB-231, in the assay on MDA-MB-435, in the assay with SK-MEL-2 and in the assay with RPMI-8226 was > 100 µM (inactive) in each case. In addition, the GI50 in the assay with TK-10, with KM12, in the assay on ACHN and with EKVX was > 100 µM (inactive) each time.
With `O=C(Oc1ccc(C(c2c(O)c3ccccc3oc2=O)c2c(O)c3ccccc3oc2=O)cc1)c1ccc(C(=O)c2ccccc2)cc1`, the GI50 in the assay with SNB-75 was 17.7 µM (inactive); in the assay with OVCAR-3 it was 18.3 µM (inactive); with HOP-62 it was 24.1 µM (inactive); in the assay with PC-3 it was 18.7 µM (inactive); with 786-0, 33 µM (inactive); in the assay on SNB-19, 17.4 µM (inactive). Moreover, the GI50 with T47D was 34.5 µM (inactive); in the assay on NCI/ADR-RES it was 17.3 µM (inactive); with OVCAR-4, 38.4 µM (inactive); in the assay on RXF 393, 27.3 µM (inactive); in the assay on CCRF-CEM it was 22.6 µM (inactive); with MDA-MB-231, 35.6 µM (inactive). The GI50 in the assay with MDA-MB-435 was 20.3 µM (inactive); in the assay on SK-MEL-2, 17.8 µM (inactive); in the assay on RPMI-8226 it was 22.6 µM (inactive); with TK-10 it was 17.9 µM (inactive); in the assay on KM12, 17.1 µM (inactive); with ACHN, 19.3 µM (inactive). For the same compound, the GI50 with EKVX is 16.7 µM (inactive).
Turning to `COC(=O)CCCC1(CCCC(=O)OC)CCCCCCCCC(CCCC(=O)OC)(CCCC(=O)OC)C(=O)C1=O`, the GI50 was 23.9 µM (inactive) in the assay on SNB-75; 22.9 µM (inactive) with OVCAR-3; 38.5 µM (inactive) in the assay on HOP-62; 21.2 µM (inactive) with PC-3; 17.1 µM (inactive) with 786-0; > 100 µM (inactive) in the assay with SNB-19. The GI50 in the assay on T47D is 30.1 µM (inactive); in the assay on NCI/ADR-RES it was 40.2 µM (inactive); with A498 it was > 100 µM (inactive); in the assay with OVCAR-4 it was 17.3 µM (inactive); in the assay with RXF 393, 1.6 µM (inactive); in the assay on MDA-MB-435, 86.1 µM (inactive). The GI50 was 28.9 µM (inactive) in the assay with SK-MEL-2; < 0.01 µM (active) in the assay with RPMI-8226; > 100 µM (inactive) in the assay on TK-10; 38.8 µM (inactive) in the assay with KM12; 40.2 µM (inactive) in the assay on ACHN; > 100 µM (inactive) in the assay with EKVX.
